Results: article PMC10239507, “Development of allosteric and selective CDK2 inhibitors for contraception with negative cooperativity to cyclin binding” (Nature Communications, 2023)

Experiments:
Experiment in all cases: biochemical
[1] = target: T1, 371 kinases (kinase named in each endpoint) (Homo sapiens, UniProt Q8IYT8); settings: ULK2
T1 construct: purchased Reaction Biology

[2] = target: T2, 371 kinases (kinase named in each endpoint) (Homo sapiens, UniProt O00506); settings: STK25/YSK1
T2 construct: purchased Reaction Biology

[3] = target: T3, 371 kinases (kinase named in each endpoint) (Homo sapiens, UniProt P16591); settings: FER
T3 construct: purchased Reaction Biology

[4] = target: T4, 371 kinases (kinase named in each endpoint) (Homo sapiens, UniProt Q9UIK4); settings: DAPK2
T4 construct: purchased Reaction Biology

[5] = target: T5, 371 kinases (kinase named in each endpoint) (Homo sapiens, UniProt Q00536); settings: CDK16/CYCLIN Y (PCTAIRE)
T5 construct: purchased Reaction Biology
T5 sequence (Q00536 whole entry): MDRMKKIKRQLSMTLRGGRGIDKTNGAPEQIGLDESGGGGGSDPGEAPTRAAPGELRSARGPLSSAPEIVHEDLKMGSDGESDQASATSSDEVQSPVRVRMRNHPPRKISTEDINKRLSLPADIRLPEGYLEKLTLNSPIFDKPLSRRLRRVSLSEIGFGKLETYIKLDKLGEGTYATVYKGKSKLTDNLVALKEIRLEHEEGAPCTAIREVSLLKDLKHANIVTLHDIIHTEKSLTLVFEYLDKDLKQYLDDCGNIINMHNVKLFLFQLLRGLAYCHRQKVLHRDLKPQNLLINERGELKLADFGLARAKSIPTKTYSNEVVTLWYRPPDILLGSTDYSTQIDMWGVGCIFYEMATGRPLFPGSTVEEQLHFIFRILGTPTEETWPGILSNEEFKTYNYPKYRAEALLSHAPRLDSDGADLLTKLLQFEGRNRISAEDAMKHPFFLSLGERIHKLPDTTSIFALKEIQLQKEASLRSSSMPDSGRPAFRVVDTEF

[6] = target: T6, 371 kinases (kinase named in each endpoint) (Homo sapiens, UniProt Q86UX6); settings: STK32C/YANK3
T6 construct: purchased Reaction Biology

[7] = target: T7, 371 kinases (kinase named in each endpoint) (Homo sapiens, UniProt P51956); settings: NEK3
T7 construct: purchased Reaction Biology

[8] = target: T8, 371 kinases (kinase named in each endpoint) (Homo sapiens, UniProt O14578); settings: STK21/CIT
T8 construct: purchased Reaction Biology

[9] = target: T9, 371 kinases (kinase named in each endpoint) (Homo sapiens, UniProt Q32MK0); settings: MYLK3
T9 construct: purchased Reaction Biology

[10] = target: T10, 371 kinases (kinase named in each endpoint) (Homo sapiens, UniProt O60285); settings: ARK5/NUAK1
T10 construct: purchased Reaction Biology

[11] = target: T11, 371 kinases (kinase named in each endpoint) (Homo sapiens, UniProt Q16566); settings: CAMK4
T11 construct: purchased Reaction Biology

[12] = target: T12, 371 kinases (kinase named in each endpoint) (Homo sapiens, UniProt P06241); settings: FYN
T12 construct: purchased Reaction Biology

[13] = target: T13, 371 kinases (kinase named in each endpoint) (Homo sapiens, UniProt Q9UF33); settings: EPHA6
T13 construct: purchased Reaction Biology

[14] = target: T14, 371 kinases (kinase named in each endpoint) (Homo sapiens, UniProt Q5S007); settings: LRRK2
T14 construct: purchased Reaction Biology

[15] = target: T15, 371 kinases (kinase named in each endpoint) (Homo sapiens, UniProt Q96RG2); settings: PASK
T15 construct: purchased Reaction Biology
T15 sequence (Q96RG2 whole entry): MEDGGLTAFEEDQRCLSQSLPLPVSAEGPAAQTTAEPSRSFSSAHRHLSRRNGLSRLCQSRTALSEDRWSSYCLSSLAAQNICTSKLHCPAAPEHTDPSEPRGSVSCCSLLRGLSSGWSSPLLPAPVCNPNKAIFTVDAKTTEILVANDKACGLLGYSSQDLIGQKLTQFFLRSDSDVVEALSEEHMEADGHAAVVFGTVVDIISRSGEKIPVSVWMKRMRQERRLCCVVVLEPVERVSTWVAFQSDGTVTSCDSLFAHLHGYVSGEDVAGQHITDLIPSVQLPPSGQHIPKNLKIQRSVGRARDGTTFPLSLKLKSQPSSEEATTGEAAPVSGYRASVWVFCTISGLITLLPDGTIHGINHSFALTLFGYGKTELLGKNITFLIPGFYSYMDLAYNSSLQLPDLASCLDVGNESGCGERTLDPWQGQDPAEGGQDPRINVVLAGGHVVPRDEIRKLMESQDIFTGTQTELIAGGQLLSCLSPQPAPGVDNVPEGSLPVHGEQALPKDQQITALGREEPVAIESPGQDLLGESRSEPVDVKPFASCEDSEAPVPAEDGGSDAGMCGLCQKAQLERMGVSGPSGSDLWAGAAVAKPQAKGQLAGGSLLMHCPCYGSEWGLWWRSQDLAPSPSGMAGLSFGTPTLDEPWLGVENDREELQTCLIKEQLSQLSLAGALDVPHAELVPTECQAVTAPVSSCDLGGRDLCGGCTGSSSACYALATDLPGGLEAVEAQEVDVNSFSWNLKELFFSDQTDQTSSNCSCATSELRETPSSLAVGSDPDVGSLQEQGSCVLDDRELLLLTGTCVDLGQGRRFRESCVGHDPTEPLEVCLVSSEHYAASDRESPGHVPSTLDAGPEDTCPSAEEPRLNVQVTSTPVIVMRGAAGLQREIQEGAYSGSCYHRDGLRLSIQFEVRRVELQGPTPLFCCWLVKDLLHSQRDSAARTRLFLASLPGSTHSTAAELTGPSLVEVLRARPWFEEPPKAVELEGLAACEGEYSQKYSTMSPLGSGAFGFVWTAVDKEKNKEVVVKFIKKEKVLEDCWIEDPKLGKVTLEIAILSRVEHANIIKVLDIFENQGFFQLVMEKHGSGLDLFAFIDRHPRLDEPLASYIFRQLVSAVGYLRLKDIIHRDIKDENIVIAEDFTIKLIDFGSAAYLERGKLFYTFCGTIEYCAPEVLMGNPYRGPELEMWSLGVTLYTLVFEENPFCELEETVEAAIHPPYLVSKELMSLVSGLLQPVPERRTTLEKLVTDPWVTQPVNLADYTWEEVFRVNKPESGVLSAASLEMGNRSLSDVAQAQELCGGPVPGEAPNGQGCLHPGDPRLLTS

[16] = target: T16, 371 kinases (kinase named in each endpoint) (Homo sapiens, UniProt Q96PF2); settings: TSSK2
T16 construct: purchased Reaction Biology

[17] = target: T17, 371 kinases (kinase named in each endpoint) (Homo sapiens, UniProt Q96GD4); settings: AURORA B
T17 construct: purchased Reaction Biology

[18] = target: T18, 371 kinases (kinase named in each endpoint) (Homo sapiens, UniProt Q9H2X6); settings: HIPK2
T18 construct: purchased Reaction Biology
T18 sequence (Q9H2X6 whole entry): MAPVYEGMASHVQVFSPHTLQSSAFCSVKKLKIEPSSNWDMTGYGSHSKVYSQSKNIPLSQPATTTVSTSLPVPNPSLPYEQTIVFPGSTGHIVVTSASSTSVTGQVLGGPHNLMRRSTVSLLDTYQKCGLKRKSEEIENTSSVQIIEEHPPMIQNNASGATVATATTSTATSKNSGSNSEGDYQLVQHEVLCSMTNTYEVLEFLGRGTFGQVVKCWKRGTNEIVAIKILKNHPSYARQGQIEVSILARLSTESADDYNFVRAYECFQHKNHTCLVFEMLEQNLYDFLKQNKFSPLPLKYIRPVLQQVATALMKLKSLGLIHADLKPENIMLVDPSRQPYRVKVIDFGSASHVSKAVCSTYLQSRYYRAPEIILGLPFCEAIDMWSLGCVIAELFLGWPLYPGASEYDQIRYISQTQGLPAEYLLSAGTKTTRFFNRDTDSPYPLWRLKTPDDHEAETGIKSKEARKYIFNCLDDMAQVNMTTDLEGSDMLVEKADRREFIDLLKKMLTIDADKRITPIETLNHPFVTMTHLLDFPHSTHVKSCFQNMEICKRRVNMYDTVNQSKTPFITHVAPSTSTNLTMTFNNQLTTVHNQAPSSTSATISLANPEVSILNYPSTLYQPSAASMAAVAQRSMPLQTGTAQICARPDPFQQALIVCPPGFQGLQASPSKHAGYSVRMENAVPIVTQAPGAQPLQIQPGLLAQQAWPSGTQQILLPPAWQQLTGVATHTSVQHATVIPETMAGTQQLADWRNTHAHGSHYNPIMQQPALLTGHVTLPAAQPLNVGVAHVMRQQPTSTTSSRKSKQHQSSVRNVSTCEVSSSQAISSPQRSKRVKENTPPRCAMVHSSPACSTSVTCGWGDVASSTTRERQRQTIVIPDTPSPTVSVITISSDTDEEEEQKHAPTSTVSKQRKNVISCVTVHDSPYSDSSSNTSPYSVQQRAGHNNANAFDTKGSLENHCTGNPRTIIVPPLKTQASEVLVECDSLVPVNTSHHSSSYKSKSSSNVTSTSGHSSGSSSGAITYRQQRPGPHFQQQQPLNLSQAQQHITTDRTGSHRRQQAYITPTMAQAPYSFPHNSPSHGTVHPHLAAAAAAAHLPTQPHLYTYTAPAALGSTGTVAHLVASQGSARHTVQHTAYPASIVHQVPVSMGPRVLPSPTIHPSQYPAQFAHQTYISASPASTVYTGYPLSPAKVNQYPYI

[19] = target: T19, 371 kinases (kinase named in each endpoint) (Homo sapiens, UniProt O75460); settings: ERN1/IRE1
T19 construct: purchased Reaction Biology

[20] = target: T20, 371 kinases (kinase named in each endpoint) (Homo sapiens, UniProt P51955); settings: NEK2
T20 construct: purchased Reaction Biology

[21] = target: T21, 371 kinases (kinase named in each endpoint) (Homo sapiens, UniProt Q5TCX8); settings: MLK4
T21 construct: purchased Reaction Biology

[22] = target: T22, 371 kinases (kinase named in each endpoint) (Homo sapiens, UniProt P23458); settings: JAK1
T22 construct: purchased Reaction Biology

[23] = target: T23, 371 kinases (kinase named in each endpoint) (Homo sapiens, UniProt Q05513); settings: PKCZETA
T23 construct: purchased Reaction Biology

[24] = target: T24, 371 kinases (kinase named in each endpoint) (Homo sapiens, UniProt Q15303); settings: ERBB4/HER4
T24 construct: purchased Reaction Biology

[25] = target: T25, 371 kinases (kinase named in each endpoint) (Homo sapiens, UniProt Q96NX5); settings: CAMK1G
T25 construct: purchased Reaction Biology

[26] = target: T26, 371 kinases (kinase named in each endpoint) (Homo sapiens, UniProt P57059); settings: SIK1
T26 construct: purchased Reaction Biology

[27] = target: T27, 371 kinases (kinase named in each endpoint) (Homo sapiens, UniProt Q05655); settings: PKCD
T27 construct: purchased Reaction Biology

[28] = target: T28, 371 kinases (kinase named in each endpoint) (Homo sapiens, UniProt Q13464); settings: ROCK1
T28 construct: purchased Reaction Biology

[29] = target: T29, 371 kinases (kinase named in each endpoint) (Homo sapiens, UniProt Q15375); settings: EPHA7
T29 construct: purchased Reaction Biology

[30] = target: T30, 371 kinases (kinase named in each endpoint) (Homo sapiens, UniProt Q15139); settings: PKCMU/PRKD1
T30 construct: purchased Reaction Biology

[31] = target: T31, 371 kinases (kinase named in each endpoint) (Homo sapiens, UniProt P78362); settings: SRPK2
T31 construct: purchased Reaction Biology

[32] = target: T32, 371 kinases (kinase named in each endpoint) (Homo sapiens, UniProt P35968); settings: KDR/VEGFR2
T32 construct: purchased Reaction Biology

[33] = target: T33, 371 kinases (kinase named in each endpoint) (Homo sapiens, UniProt O15146); settings: MUSK
T33 construct: purchased Reaction Biology

[34] = target: T34, 371 kinases (kinase named in each endpoint) (Homo sapiens, UniProt Q9H2G2); settings: SLK/STK2
T34 construct: purchased Reaction Biology

[35] = target: T35, 371 kinases (kinase named in each endpoint) (Homo sapiens, UniProt Q07912); settings: ACK1
T35 construct: purchased Reaction Biology
T35 sequence (Q07912 whole entry): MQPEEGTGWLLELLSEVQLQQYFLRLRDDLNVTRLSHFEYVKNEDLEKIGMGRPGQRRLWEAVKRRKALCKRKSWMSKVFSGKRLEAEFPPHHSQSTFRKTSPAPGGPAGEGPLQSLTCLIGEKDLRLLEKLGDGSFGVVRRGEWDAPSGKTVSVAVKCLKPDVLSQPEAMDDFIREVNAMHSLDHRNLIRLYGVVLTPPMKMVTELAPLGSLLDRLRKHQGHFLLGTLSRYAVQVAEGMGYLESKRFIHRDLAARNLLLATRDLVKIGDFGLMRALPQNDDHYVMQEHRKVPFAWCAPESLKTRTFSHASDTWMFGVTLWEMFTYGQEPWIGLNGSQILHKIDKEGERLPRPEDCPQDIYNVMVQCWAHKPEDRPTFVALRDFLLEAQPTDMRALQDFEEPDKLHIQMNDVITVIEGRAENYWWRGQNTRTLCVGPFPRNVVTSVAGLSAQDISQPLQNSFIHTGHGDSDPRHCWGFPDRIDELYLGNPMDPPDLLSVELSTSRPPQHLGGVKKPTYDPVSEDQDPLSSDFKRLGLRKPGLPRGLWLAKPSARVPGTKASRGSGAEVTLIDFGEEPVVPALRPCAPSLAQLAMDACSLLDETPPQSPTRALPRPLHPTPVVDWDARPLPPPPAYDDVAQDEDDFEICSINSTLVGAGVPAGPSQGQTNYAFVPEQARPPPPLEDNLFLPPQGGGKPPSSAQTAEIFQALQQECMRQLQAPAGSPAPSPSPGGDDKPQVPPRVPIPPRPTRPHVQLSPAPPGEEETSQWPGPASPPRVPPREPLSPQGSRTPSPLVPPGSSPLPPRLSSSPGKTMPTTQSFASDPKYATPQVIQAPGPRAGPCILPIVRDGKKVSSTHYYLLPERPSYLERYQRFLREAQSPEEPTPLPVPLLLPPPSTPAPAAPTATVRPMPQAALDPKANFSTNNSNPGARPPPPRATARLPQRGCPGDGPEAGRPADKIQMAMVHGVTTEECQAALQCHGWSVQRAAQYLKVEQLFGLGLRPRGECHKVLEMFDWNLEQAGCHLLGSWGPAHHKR

[36] = target: T36, 371 kinases (kinase named in each endpoint) (Homo sapiens, UniProt Q9NYY3); settings: PLK2
T36 construct: purchased Reaction Biology

[37] = target: T37, 371 kinases (kinase named in each endpoint) (Homo sapiens, UniProt Q9UPZ9); settings: LCK2/ICK
T37 construct: purchased Reaction Biology

T1 sequence (Q8IYT8 whole entry): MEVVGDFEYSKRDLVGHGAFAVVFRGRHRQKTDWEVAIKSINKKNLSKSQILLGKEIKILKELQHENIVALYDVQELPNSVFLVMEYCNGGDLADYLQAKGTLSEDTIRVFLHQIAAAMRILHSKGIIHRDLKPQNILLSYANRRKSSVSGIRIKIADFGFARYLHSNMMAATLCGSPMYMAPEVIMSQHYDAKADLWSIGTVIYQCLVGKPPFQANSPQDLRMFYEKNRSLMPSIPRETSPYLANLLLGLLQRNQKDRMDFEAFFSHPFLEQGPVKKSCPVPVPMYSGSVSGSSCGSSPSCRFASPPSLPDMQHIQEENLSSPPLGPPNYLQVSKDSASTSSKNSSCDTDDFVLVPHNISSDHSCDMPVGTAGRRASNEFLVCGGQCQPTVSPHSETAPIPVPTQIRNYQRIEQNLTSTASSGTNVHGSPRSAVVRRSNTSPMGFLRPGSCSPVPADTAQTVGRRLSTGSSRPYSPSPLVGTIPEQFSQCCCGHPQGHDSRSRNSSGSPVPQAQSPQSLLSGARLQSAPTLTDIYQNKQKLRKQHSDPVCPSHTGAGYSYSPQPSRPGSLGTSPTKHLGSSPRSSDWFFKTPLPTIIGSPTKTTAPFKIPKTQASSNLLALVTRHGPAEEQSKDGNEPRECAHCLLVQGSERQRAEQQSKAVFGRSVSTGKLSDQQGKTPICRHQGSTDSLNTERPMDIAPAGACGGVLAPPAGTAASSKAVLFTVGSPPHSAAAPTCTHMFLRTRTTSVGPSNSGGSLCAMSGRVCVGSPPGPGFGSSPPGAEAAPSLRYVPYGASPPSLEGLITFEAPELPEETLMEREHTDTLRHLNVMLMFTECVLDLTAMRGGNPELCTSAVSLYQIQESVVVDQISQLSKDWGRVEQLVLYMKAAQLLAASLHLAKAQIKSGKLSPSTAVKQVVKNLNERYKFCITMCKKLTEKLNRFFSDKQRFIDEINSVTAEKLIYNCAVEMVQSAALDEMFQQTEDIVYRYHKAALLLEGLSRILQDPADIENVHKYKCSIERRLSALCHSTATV

`O=C(O)c1cc(C(F)(F)F)ccc1NCCc1c[nH]c2cc(Br)ccc12` [Compound 5, 2-((2-(6-Bromo-1H-indol-3-yl)ethyl)amino)−5-(trifluoromethyl)benzoic Acid] showed an activity at 10 µM [1] of 102.4 ± 0.4%, an activity at 10 µM [2] of 124 ± 1.4% and an activity at 10 µM [3] of 89.6 ± 2%. It also gave an activity at 10 µM [4] of 78.8 ± 0.4%, an activity at 10 µM [5] of 76.9 ± 0.5% and an activity at 10 µM [6] of 100.2 ± 0.6%. It also gave an activity at 10 µM [7] of 93.3 ± 0.4%, an activity at 10 µM [8] of 102.1 ± 0.3% and an activity at 10 µM [9] of 90.9 ± 3.2%. The activity at 10 µM [10] was 75.5 ± 0.1%, the activity at 10 µM [11] was 27.5 ± 6.5% and the activity at 10 µM [12] was 86.4 ± 1.8%. For the same molecule, the activity at 10 µM [13] was 91.9 ± 1.1%, the activity at 10 µM [14] was 99.5 ± 0.1% and the activity at 10 µM [15] was 95.2 ± 2.9%. For the same molecule, the activity at 10 µM [16] was 79.9 ± 2.4%, the activity at 10 µM [17] was 34.9 ± 0.5% and the activity at 10 µM [18] was 79.9 ± 0.7%. For the same molecule, the activity at 10 µM [19] was 101 ± 0.6%, the activity at 10 µM [20] was 50.8 ± 1.3% and the activity at 10 µM [21] was 88.2 ± 0.3%. It also gave an activity at 10 µM [22] of 67.7 ± 0.8%, an activity at 10 µM [23] of 126.6 ± 0.3% and an activity at 10 µM [24] of 96.2 ± 1%. For the same molecule, the activity at 10 µM [25] was 40.8 ± 2.3%, the activity at 10 µM [26] was 69.3 ± 1% and the activity at 10 µM [27] was 54.7 ± 2.7%. The activity at 10 µM [28] was 93.3 ± 1.1%, the activity at 10 µM [29] was 82.8 ± 2.2% and the activity at 10 µM [30] was 115.9 ± 0.9%. For the same molecule, the activity at 10 µM [31] was 95.1%, the activity at 10 µM [32] was 87.7 ± 1.6% and the activity at 10 µM [33] was 104.4 ± 1%. The activity at 10 µM [34] was 89.7 ± 3%, the activity at 10 µM [35] was 92 ± 0.4% and the activity at 10 µM [36] was 67.4 ± 0.7%. For the same molecule, the activity at 10 µM [37] was 98.2 ± 1.3%.
